According to publication PMC3076939 (Biochemistry, 2011):

Tests used:
[1] = test system: C-terminal processing of PHI(1–27); type: biochemical, mouse; settings: PHI(1–27) with membrane lysate 1 mg/mL in PBS, 37 °C, 15 min, LC-MS; o-phenanthroline 1 mM, phosphoamidon 10 µM
human plasma = settings: cited from earlier work
plasma = settings: cited from earlier work
DPP4 = DPP4 (Mus musculus, UniProt P28843); type: biochemical
DPP4, sequence (P28843 whole entry): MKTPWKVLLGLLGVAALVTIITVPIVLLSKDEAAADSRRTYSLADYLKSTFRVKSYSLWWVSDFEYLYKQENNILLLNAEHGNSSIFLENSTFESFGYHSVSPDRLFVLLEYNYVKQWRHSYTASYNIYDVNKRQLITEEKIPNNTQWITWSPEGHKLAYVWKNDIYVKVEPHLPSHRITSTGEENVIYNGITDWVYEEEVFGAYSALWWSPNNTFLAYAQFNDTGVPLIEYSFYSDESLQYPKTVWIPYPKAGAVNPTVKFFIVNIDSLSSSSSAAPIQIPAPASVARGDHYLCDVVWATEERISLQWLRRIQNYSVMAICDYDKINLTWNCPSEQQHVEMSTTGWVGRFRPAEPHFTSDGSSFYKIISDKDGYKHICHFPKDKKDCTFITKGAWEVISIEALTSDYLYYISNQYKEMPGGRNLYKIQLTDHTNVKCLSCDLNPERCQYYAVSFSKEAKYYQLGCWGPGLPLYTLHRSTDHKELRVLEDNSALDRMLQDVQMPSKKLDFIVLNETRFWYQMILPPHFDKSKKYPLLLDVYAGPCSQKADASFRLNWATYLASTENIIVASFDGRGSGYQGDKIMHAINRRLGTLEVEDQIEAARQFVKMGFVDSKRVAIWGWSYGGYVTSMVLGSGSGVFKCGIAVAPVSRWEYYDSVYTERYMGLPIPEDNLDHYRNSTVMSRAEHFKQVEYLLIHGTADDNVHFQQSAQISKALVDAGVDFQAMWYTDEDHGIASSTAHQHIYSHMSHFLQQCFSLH

Compound	effect on C-terminal processing of PHI(1–27) (PHI(1–22) production) [1]	other results
CC(C)C[C@H](NP(=O)(O)O[C@@H]1O[C@@H](C)[C@H](O)[C@@H](O)[C@H]1O)C(=O)N[C@@H](Cc1c[nH]c2ccccc12)C(=O)O [phosphoramidon]	no impact	
CNC(=O)[C@H](Cc1c[nH]c2ccccc12)NC(=O)[C@@H](CC(=O)NO)CC(C)C [GM6001]	no impact	
HAEGTFTSDVSSYLEGQAAKEFIAWLVKGRG-CONH2		fragment found (human plasma): GLP-1(9–36); fragment found (plasma): GLP-1(9–36), major
c1cnc2c(c1)ccc1cccnc12 [1,10-phenanthroline]	reducing the production of PHI(1–22)	
O=S(=O)(F)Cc1ccccc1 [PMSF, phenylmethylsulfonyl fluoride]		inhibition of the production of PHI(3–27) (N-terminal processing) (DPP4): strongly inhibited the production of PHI(3–27)
